This is an account of results in publication PMC7316388 (European journal of cell biology, 2010).

In the assay the target is CREB (Mus musculus, UniProt Q01147). The assay is described as follows: chromatin immunoprecipitation, CREB binding to c-fos promoter. The format is cell-based. The following applies: 100 μM compound with lipofectamine, 24 h, NIH3T3 cells.
Chain of CREB (Q01147 whole entry): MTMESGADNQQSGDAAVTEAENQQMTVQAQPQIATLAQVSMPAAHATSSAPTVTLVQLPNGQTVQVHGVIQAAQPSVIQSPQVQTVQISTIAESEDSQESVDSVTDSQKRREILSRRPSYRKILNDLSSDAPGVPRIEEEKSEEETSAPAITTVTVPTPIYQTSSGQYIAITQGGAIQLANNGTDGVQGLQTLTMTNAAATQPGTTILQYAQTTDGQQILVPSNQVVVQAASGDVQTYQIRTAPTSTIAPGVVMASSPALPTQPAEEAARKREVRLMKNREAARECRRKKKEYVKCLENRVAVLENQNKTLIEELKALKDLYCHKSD

As to `O=S(=O)(O)c1cc[c]([Sb](=[O])([OH])[OH])cc1` [NSC13746], the “% reduction in CREB DNA binding at 100 μM” value is listed as 30%.
